Data from US20230203058A1, “MACROCYCLIC DIAMINE DERIVATIVES AS ENT INHIBITORS FOR THE TREATMENT OF CANCERS, AND COMBINATION THEREOF WITH ADENOSINE RECEPTOR ANTAGONISTS” (ITEOS BELGIUM SA, priority 2020, published 2023).
Like-named read-outs stand apart in the source and are kept apart here.

Tests used:
hERG ion channel = biological target: T1, hERG ion channel (Homo sapiens, UniProt Q12809); experiment: hERG ion channel inhibition (Patchliner automated patch-clamp, CHO cells); type: cell-based; settings: whole-cell, room temperature, 6-point curve up to 100 µM
T1 construct: Chinese Hamster Ovary cell lines stably expressing the full-length ion channel; expressed in transfected cells
Protocol: The compounds were tested for inhibition of hERG ion channel. 6-Point concentration-response curves were generated on the Patchliner automated patch-clamp using serial dilutions from a maximum test concentration of 100 µM.
Compounds were solubilised to 33 mM in DMSO before dilution in HBPS to 100 µM. 6-Point concentration-response curves were generated using serial dilutions from the top test concentration. Electrophysiological recordings were made from a Chinese Hamster Ovary cell lines stably expressing the full-length ion channel. Single cell ionic currents were measured in whole-cell configuration at room temperature (21-23° C.) using a Patchliner (Nanion Technologies). The internal solution for hERG contained (mM): 120 KF, 20 KCl, 10 EGTA, 10 HEPES and was buffered to pH 7.3. The external solution (HEPES-buffered saline, HBPS) contained (mM): 138 NaCl, 4.5 KCl, 1.8 CaC12, 1.0 MgC12, 10 HEPES, 10 glucose, buffered to pH7.4. Cells were clamped at a holding potential of -80 mV before a depolarising step appropriate for the hERG channel. Currents were measured from the step and referenced to the holding current. Compounds were incubated for 90 seconds. Concentration-response curves were generated by cumulative addition of compound with concentrations low to high. In all cases, steady-state inhibition was achieved before the next concentration of compound was added.
IC50 values were obtained from a 4-parameter logistic fit of the concentration-response data: […]

human ENT1 = biological target: T2, human ENT1 (Homo sapiens, UniProt Q99808); experiment: ENT1 binding assay (competition with Sahenta-DY647 on JAR cells); set-up: JAR cells expressing ENT1 were bought from ATCC® (HTB-144TM); host or cells: JAR cells (human choriocarcinoma line; whole cells); settings: competition with Sahenta-DY647 100 nM, 4° C.
T2 sequence (Q99808 1-456): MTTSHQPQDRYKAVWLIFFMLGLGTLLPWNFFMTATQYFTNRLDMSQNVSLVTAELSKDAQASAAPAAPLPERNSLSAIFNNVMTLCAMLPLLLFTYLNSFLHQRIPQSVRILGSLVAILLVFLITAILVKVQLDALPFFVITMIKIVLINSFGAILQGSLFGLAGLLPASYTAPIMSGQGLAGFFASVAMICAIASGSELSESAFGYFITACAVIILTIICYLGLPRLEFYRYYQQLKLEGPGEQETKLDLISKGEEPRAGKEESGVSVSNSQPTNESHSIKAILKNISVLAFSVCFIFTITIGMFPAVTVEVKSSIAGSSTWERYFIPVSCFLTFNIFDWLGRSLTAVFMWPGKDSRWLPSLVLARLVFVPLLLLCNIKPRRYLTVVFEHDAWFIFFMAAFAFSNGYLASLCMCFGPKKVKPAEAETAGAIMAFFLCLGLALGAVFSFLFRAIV
Method in brief: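 Competition binding on intact JAR cells (50000 per well) in HBSS with 10 mM Hepes and 0.1% BSA. Cells pre-incubated with compound 30 min at 4 °C, then Sahenta-DY647 added at its IC90 (100 nM) for another 30 min at 4 °C; after washing, fluorescence read at Ex 630/Em 670 nm.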

[1] = test system: stimulated primary human T cells; experiment: T cell proliferation assay (rescue of proliferation in presence of ATP, CFSE dilution); type: cell-based; settings: 100 uM ATP
Protocol: The aim of this study was to determine the potency of equilibrative nucleoside transporter 1 (ENT1) inhibitors to rescue proliferation by stimulated primary human T cells incubated in the presence of 100 uM Adenosine triphosphate (ATP), in baseline conditions (condition A) or in the presence of various proteins known to bind small molecules (condition B). Condition A: X-VIVO15 Condition B: X-VIVO15, 2% Human Serum Albumine (HSA) and 0,1% α-1-Acid Glycoprotein (AAG)
Cryopreserved purified human CD3+ T cells were thawed and washed twice with RPMI1640 medium, UltraGlutamine containing 10% hiFBS.
Cells were suspended in PBS containing 10% hiFBS. Cells were stained with CFSE by adding 2 µM solution in PBS, to get a final 1 µM CFSE solution. Cells were incubated while rotating for 5 minutes. Reaction was stopped by adding PBS with 10% FBS and cells were centrifuged for 5 minutes at 1500 rpm.
Cells were resuspended at 1.6 ×10^6 cells/mL, either in X-VIVO15 medium or in 4% Human Serum Albumin and 0,2% α-1-Acid Glycoprotein. 50 µL of cell suspension (8×10^4 T cells) was added to wells of sterile round-bottom 96-well plates. Cells were activated by adding 50 µL of anti-CD3 anti-CD28 coated microbeads, suspended either in XVIVO-15 medium or in 4% HSA and 0,2% α-1-Acid Glycoprotein, at a ratio of one microbead per two cells. Serial dilutions of the ENT1 inhibitors were prepared in X-VIVO15 from 10 mM stock solutions in DMSO, and 50 µL was added to the wells. ATP powder was diluted in X-VIVO15, and 50 µL of this compound was added to the wells to reach a final assay concentration of 100 µM. Final volume of 200 µL. The experiments were also performed in 384 well plates - all volumes reduced by a factor of 4 (12,5 µL) with a final volume of 50 µL. Experiments were performed in duplicate. The cells were placed in a 37° C. humidified tissue culture incubator with 5% CO2 for 72 hours for 96 well plates, 96 hours for 384 well plates. After 72 or 96 hours, proliferation was measured determined by CFSE dilution via flow cytometry.

human T cells = experiment: T cell stimulation assay (Example III, FIG. 1); type: cell-based; settings: ATP 100 µM
Protocol: FIG. 1A depicts a graph of log concentration (M) versus percent proliferation. Purified human T cells were activated with anti-CD3/CD28 dynabeads in the presence of ATP (100 µM) as a source of adenosine for 96 h and then proliferation was assessed by CFSE dilution.
FIG. 1B depicts a graph of log concentration of ENT1 inhibitor (M) versus percent proliferation. Experiment performed as in FIG. A with the addition of HSA and AAG to the culture medium (final concentration 2 and 0.1%, respectively).
Peripheral blood mononuclear cells (PBMCs) were first isolated via centrifugation of fresh whole blood over Lymphoprep using SepMate-50 tubes (both from […] Technologies) according to the manufacturer’s instructions. Human T cells were then isolated from the PBMCs using the EasySep Human T cell Isolation Kit ([…] Technologies) according to the manufacturer’s instructions and the cells were cryopreserved in FBS with 10% DMSO until required.
Cryopreserved human T cells were thawed on the day of the experiment and resuspended in PBS with 10% FBS at approximately 1 × 10^7 cells/ml. This cell suspension was diluted 1:1 with 2 µM CFSE solution (ThermoFisher Scientific) in PBS and incubated for 5 minutes at room temperature. The labelling reaction was quenched by further addition of PBS with 10% FBS, and then the cells were washed into X-VIVO15 medium (Lonza) for use in the T cell assay.
CFSE-labelled T cells were plated at 2 × 10^4 cells per well in 384 well plates in the presence of ATP (100 µM, Sigma-Aldrich) as a source of adenosine. Activation was driven by the addition of Dynabeads Human T-Activator CD3/CD28 (ThermoFisher Scientific) at a ratio of 0,5 beads per T cell. ENT1 inhibitor molecules including the reference molecule dilazep (Tocris Bioscience) were added, the volume of the wells was adjusted to 50 µl with X-VIVO15 medium and the plates were cultured in a humidified incubator for 96 h at 37° C. with 5% CO2. In some experiments the culture was supplemented with human serum albumin (HSA) and alpha-1-acid glycoprotein (AAG, both Sigma-Aldrich) at final concentrations of 2 and 0,1%, respectively.
Analysis of proliferation via CSFE dilution was performed by flow cytometry using a BD LSR Fortessa with data analysis on FlowJo (BD Biosciences).

[2] = Condition A: X-VIVO15, read-out: T Cell proliferation (Condition A) IC50
[3] = Condition B: X-VIVO15, 2% HSA and 0,1% AAG, read-out: (2) T Cell proliferation (Condition B) IC50

T1 sequence (Q12809 whole entry): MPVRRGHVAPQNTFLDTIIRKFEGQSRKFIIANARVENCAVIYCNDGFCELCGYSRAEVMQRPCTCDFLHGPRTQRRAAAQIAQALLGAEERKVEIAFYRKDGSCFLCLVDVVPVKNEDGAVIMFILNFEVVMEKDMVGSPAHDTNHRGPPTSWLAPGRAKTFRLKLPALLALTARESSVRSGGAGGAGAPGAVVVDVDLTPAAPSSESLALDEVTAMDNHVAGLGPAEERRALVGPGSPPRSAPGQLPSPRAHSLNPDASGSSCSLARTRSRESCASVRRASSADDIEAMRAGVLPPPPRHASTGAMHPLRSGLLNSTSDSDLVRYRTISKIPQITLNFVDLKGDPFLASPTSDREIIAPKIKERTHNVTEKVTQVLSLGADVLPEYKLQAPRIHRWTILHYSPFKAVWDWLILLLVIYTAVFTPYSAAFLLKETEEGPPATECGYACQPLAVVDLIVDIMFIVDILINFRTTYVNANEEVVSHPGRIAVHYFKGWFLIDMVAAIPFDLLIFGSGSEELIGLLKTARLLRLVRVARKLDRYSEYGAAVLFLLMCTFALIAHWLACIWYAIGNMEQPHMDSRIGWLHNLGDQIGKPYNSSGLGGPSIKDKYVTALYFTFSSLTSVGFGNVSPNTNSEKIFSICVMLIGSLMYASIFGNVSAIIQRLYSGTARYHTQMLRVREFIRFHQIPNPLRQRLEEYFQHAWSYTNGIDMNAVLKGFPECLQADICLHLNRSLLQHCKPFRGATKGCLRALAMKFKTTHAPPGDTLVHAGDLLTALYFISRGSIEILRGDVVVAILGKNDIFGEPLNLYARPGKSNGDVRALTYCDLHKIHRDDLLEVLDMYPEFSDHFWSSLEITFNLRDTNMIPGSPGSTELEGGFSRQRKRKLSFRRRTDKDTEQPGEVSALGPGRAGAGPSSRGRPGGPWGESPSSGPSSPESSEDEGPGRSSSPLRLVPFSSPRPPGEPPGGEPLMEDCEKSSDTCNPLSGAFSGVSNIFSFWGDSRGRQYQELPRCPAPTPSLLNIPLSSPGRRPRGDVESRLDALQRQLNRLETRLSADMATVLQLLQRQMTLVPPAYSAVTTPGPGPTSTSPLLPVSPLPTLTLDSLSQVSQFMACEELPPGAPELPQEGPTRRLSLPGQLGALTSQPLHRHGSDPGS

SMILES	IC50 (human ENT1)	IC50 (hERG ion channel)	IC50 [1, 2]	IC50 [1, 3]	IC50 (human T cells; anti-CD3/CD28 dynabeads, 96 h (FIG. 1A), read-out: IC50 of restoration of T cell proliferation)	IC50 (human T cells; with HSA 2% and AAG 0,1% (FIG. 1B), read-out: IC50 of restoration of T cell proliferation under high protein binding conditions)
COc1cc2cc(c1OC)OCCCC(O/N=C\c1ccccc1)CCN1CCCN(CCCOC2=O)CC1 (stereo not shown) [Compound 37, (Z)-benzaldehyde O-(74,75-dimethoxy-6-oxo-5,8-dioxa-1(1,4)-diazepana-7(1,3)-benzenacyclotetradecaphane-12-yl) oxime]	20 to 500 nM		1 to 20 nM	> 500 nM		
COc1cc2cc(c1OC)OCCCC(OC(=O)c1cnccn1)CCN1CCCN(CCCOC2=O)CC1 (stereo not shown) [Compound 54, 74,75-dimethoxy-6-oxo-5,8-dioxa-1(1,4)-diazepana-7(1,3)-benzenacyclotetradecaphane-12-yl pyrazine-2-carboxylate]	1 to 20 nM		20 to 500 nM	> 500 nM		
COc1cc(C(=O)OCCCN2CCCN(CCCOC(=O)c3cc(OC)c(OC)c(OC)c3)CC2)cc(OC)c1OC [Dilazep, dilazep, reference compound]		900 nM	1 to 20 nM	20 to 500 nM	71 nM	337 nM
COc1cc(C(=O)O[C@@H]2CCCOc3cc(cc(OC)c3OC)C(=O)OCCCN3CCN(CC2)CC(F)(F)C3)cc(OC)c1OC [Compound 6, (12R)-16,16-difluoro-74,75-dimethoxy-6-oxo-5,8-dioxa-1(1,4)-diazepana-7(1,3)-benzenacyclotetradecaphane-12-yl 3,4,5-trimethoxybenzoate]	1 to 20 nM		< 1 nM	20 to 500 nM		
COc1cc2cc(c1OC)OCCCC(OC(=O)c1cccc(Oc3ccccc3)c1)CCN1CCCN(CCCOC2=O)CC1 (stereo not shown) [Compound 46, 74,75-dimethoxy-6-oxo-5,8-dioxa-1(1,4)-diazepana-7(1,3)-benzenacyclotetradecaphane-12-yl 3-phenoxybenzoate]	20 to 500 nM		1 to 20 nM	20 to 500 nM		
COc1cc2cc(c1OC)OCCCC(OC(C)=O)CCN1CCCN(CCCOC2=O)CC1 (stereo not shown) [Compound 59, 74,75-dimethoxy-6-oxo-5,8-dioxa-1(1,4)-diazepana-7(1,3)-benzenacyclotetradecaphane-12-yl acetate]	1 to 20 nM		1 to 20 nM	> 500 nM		
COc1cc2cc(c1OC)OCCCC(OC(=O)c1ccc(OC(C)C)cc1)CCN1CCCN(CCCOC2=O)CC1 (stereo not shown) [Compound 43, 74,75-dimethoxy-6-oxo-5,8-dioxa-1(1,4)-diazepana-7(1,3)-benzenacyclotetradecaphane-12-yl 4-isopropoxybenzoate]	20 to 500 nM		< 1 nM	1 to 20 nM		

The next lines start with results.

IC50 (human ENT1)	SMILES	IC50 (hERG ion channel)	IC50 [1, 2]	IC50 [1, 3]	IC50 (human T cells; anti-CD3/CD28 dynabeads, 96 h (FIG. 1A), read-out: IC50 of restoration of T cell proliferation)	IC50 (human T cells; with HSA 2% and AAG 0,1% (FIG. 1B), read-out: IC50 of restoration of T cell proliferation under high protein binding conditions)
1 to 20 nM	COc1cc2cc(c1OC)OCCCC(OC(=O)c1ccccn1)CCN1CCCN(CCCOC2=O)CC1 (stereo not shown) [Compound 52, 74,75-dimethoxy-6-oxo-5,8-dioxa-1(1,4)-diazepana-7(1,3)-benzenacyclotetradecaphane-12-yl picolinate]	2700 nM				
1 to 20 nM	COc1cc2cc(c1OC)OCCCC(OC(=O)CCCNC(C)=O)CCN1CCCN(CCCOC2=O)CC1 (stereo not shown) [Compound 97, 74,75-dimethoxy-6-oxo-5,8-dioxa-1(1,4)-diazepana-7(1,3)-benzenacyclotetradecaphane-12-yl 4-acetamidobutanoate]		< 1 nM	> 500 nM		
1 to 20 nM	COCCC(=O)OC1CCCOc2cc(cc(OC)c2OC)C(=O)OCCCN2CCCN(CC1)CC2 (stereo not shown) [Compound 93, 74,75-dimethoxy-6-oxo-5,8-dioxa-1(1,4)-diazepana-7(1,3)-benzenacyclotetradecaphane-12-yl 3-methoxypropanoate]		1 to 20 nM	> 500 nM		
1 to 20 nM	COc1cc(C(=O)O[C@@H]2CCCOc3cccc(c3)C(=O)OCCCN3CCCN(CC2)CC3)cc(OC)c1OC (stereo in doubt) [Compound 18, (12R)-6-oxo-5,8-dioxa-1(1,4)-diazepana-7(1,3)-benzenacyclotetradecaphane-12-yl 3,4,5-trimethoxybenzoate]		1 to 20 nM	> 500 nM		
